The values below are quoted from earlier work in US20240024159A1, “POSTERIOR CHAMBER PLACEMENT OF SUSTAINED RELEASE IMPLANT” (Allergan, Inc., priority 2020, published 2024).

The subject of this data set is prostaglandin (PG) sensitive receptors.

For `CCNC(=O)CCC/C=C\C[C@@H]1[C@@H](/C=C/[C@@H](O)CCc2ccccc2)[C@H](O)C[C@@H]1O` [bimatoprost], the “interaction with prostaglandin (PG) sensitive receptors” value is listed as “no meaningful interaction”.
